Laboratory results from US20240051985A1, “METTL3 MODULATORS” (ACCENT THERAPEUTICS, INC., priority 2020, published 2024).

Key:
METTL3/METTL14 = METTL3/METTL14 (Homo sapiens, UniProt Q86U44); assay: METTL3-14 standard enzyme assay (3H-SAM flashplate); conditions: METTL3 biochemical assay
Summary of the method: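 METTL3/METTL14 (2.5 nM) preincubated 5 min, then reacted with 3′-biotinylated RNA UCUGGACUAAA (100 nM) and 3H-SAM (100 nM) for 30 min at ambient temperature in 20 mM HEPES pH 7.5, 50 mM KCl, 250 μM MgCl2, 1 mM DTT. Quenched with 15 μM cold SAM; product captured on streptavidin flashplates, scintillation counted.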

FLT3 = target: T1, FLT3 (Homo sapiens, UniProt P36888); assay: FLT3 Caliper assay; type: biochemical; conditions: Table 4; read-out: FLT3 Calipher assay IC50
T1 sequence (P36888 27-993): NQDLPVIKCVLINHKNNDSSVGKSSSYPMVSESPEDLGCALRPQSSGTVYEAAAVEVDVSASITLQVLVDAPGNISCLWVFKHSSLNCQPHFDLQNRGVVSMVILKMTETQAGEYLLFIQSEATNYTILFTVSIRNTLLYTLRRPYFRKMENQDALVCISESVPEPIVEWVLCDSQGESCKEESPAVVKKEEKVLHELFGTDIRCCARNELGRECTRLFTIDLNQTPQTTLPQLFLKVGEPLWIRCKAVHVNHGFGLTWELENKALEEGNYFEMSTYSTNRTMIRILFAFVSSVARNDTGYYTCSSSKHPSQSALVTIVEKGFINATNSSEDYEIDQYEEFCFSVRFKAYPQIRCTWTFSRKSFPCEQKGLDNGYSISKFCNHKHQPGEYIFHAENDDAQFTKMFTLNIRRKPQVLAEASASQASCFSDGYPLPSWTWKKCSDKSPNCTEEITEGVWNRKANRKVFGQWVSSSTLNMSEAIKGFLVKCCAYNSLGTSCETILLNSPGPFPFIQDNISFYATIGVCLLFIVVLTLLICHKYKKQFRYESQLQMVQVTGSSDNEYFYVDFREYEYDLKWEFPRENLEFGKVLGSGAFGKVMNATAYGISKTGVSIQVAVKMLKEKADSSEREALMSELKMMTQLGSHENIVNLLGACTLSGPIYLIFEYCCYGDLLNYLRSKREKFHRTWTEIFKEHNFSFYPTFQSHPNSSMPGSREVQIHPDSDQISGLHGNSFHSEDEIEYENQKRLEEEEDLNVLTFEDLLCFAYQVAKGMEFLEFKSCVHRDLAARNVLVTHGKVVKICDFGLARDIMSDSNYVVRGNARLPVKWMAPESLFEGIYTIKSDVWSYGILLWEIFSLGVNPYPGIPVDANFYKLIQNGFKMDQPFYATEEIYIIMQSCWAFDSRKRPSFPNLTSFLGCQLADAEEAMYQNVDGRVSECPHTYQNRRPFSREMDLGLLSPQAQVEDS
Description: (§1) FLT3/FLT3-ITD Caliper Assays
(§2) Assays were performed in a 20 μl-volume in 384-well polypropylene microplates (Perkin Elmer Proxiplate, cat. No. 6059480) at ambient temperature. Optimized 1× assay buffer was 50 mM Hepes pH 7.5, 2 mM DTT, 0.01% Tween, 0.01% BSA, 10 mM MgCl2. For compound screening FLT3 (final concentration, f.c.=0.9 nM) or FLT3-ITD (f.c.=7 nM) was added using a Multidrop Combi (ThermoFisher Scientific, Waltham, MA) and preincubated for 10 min. Reactions were started by adding fluorescein-peptide (sequence 5-FAM-EAIYAAPFAKKK-CONH2) (f.c.=300 μM) and ATP (FLT3 f.c.=97 μM FLT3-ITD f.c.=146 μM) substrates. Reactions proceeded for 60 minutes. The reactions were stopped with LabChip ProfilerPro Separation Buffer containing EDTA (f.c.=20 mM). The plates were read on a Caliper microfluidics reader (PerkinElmer, Waltham, MA).

PRMT5-MEP50 = PRMT5-MEP50 (Homo sapiens, UniProt O14744); assay: PRMT5 assay (3H-SAM flashplate); conditions: PRMT5 biochemical assay
PRMT5-MEP50, sequence (O14744 whole entry): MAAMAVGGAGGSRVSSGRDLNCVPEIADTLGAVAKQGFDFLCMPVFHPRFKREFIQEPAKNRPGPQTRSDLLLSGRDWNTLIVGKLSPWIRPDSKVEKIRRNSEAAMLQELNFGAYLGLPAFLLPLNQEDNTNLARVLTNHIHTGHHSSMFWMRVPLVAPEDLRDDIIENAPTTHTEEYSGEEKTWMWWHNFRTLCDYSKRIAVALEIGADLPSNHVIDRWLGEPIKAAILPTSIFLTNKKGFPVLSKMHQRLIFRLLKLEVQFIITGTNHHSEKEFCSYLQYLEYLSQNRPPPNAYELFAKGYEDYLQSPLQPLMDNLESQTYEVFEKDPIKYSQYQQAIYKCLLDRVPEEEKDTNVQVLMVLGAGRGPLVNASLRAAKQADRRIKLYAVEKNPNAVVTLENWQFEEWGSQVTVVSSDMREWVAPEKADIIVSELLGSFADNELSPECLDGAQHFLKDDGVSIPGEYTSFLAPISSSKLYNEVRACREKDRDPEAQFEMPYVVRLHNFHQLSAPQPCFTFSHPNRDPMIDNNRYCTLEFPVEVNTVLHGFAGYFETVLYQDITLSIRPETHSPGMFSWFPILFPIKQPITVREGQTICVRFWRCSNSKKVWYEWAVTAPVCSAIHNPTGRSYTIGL
PRMT5-MEP50, sequence (Q9BQA1 whole entry partner): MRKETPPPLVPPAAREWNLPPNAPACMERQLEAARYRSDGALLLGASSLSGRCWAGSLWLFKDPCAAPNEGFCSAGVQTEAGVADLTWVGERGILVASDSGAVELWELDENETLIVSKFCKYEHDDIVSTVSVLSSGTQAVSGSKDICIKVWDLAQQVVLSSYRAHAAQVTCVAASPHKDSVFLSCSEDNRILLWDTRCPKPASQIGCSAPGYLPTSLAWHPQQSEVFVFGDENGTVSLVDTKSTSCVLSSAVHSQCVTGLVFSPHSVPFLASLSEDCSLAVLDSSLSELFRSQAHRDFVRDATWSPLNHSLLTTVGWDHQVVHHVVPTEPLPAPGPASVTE
Description: Assays were performed in a 25 μl-volume in 384-well V-bottom polypropylene microplates (Greiner Bio-One, cat. No. 781280) at ambient temperature. Optimized 1× assay buffer was 20 mM Tris-HCl pH 8.0, 1 mM DTT, […]. For compound screening PRMT5-MEP50 (final concentration, f.c.=2.5 nM) was added using a Multidrop Combi (ThermoFisher Scientific, Waltham, MA) and preincubated for 5 min. Reactions were started by adding 3′ biotinylated histone H4 peptide acetylated on serine 1 (Ac-[…]-Biotin) (f.c.=100 nM) and 3H-SAM (f.c.=250 nM) substrates. Reactions proceeded for 60 minutes and were quenched with excess non-radioactive SAM (f.c.=15 μM). The reactions were then transferred to streptavidin-coated flashplates and incubated for 2 hours at 25° C. Following two washing cycles with 0.1% Tween-20, the plates were sealed and read on a TopCount (PerkinElmer, Waltham, MA) plate-based scintillation counter. For determination of kinetic parameters, reaction times were optimized so that measurements were taken during the initial velocity phase of the reaction.

FLT3-ITD = target: T2, FLT3-ITD (Homo sapiens, UniProt P36888); assay: FLT3-ITD Caliper assay; type: biochemical; conditions: Table 4; read-out: FLT3-ITD Calipher assay IC50
T2 sequence (P36888 1-993): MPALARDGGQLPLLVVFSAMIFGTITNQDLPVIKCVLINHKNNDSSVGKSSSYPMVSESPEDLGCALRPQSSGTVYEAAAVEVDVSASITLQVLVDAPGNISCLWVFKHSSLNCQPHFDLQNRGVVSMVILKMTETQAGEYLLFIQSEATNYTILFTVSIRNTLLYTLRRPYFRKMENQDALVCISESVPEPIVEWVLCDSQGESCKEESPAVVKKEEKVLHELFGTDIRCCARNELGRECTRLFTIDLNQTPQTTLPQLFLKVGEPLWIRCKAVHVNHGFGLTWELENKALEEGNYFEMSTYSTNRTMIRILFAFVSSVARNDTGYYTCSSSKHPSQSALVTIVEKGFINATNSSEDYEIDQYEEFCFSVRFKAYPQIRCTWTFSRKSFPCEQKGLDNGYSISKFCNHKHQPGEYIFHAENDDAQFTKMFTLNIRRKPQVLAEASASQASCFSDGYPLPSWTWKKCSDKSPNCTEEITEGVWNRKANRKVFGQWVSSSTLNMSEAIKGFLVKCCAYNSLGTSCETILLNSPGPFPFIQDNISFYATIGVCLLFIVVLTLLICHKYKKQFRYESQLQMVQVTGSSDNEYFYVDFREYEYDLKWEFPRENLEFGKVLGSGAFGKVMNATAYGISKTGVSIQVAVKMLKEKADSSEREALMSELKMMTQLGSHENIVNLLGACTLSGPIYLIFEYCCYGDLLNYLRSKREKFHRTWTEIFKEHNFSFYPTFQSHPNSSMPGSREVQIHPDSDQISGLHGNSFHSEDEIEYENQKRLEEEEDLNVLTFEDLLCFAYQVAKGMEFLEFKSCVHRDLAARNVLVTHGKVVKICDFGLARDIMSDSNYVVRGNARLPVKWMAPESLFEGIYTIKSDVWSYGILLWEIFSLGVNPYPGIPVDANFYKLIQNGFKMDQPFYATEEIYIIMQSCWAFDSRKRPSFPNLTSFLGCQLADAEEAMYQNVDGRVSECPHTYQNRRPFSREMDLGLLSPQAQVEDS
Description: as §1, §2

METTL3/METTL14, sequence (Q86U44 whole entry, species assumed): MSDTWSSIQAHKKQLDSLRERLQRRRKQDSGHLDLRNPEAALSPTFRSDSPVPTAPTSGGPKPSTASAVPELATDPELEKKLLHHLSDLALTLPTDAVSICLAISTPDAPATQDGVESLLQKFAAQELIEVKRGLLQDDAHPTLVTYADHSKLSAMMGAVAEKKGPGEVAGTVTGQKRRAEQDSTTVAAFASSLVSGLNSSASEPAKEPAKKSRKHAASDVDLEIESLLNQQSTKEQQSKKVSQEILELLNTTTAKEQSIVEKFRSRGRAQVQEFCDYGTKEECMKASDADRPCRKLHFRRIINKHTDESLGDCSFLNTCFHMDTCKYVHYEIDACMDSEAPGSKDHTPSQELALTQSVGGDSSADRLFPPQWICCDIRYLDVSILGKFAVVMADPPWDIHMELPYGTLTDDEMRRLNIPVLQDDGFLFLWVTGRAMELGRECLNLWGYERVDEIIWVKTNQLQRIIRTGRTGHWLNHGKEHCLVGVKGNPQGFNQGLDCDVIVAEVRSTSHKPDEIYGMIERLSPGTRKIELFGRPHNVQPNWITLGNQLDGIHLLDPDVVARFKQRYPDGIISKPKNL
METTL3/METTL14, sequence (Q9HCE5 whole entry partner, species assumed): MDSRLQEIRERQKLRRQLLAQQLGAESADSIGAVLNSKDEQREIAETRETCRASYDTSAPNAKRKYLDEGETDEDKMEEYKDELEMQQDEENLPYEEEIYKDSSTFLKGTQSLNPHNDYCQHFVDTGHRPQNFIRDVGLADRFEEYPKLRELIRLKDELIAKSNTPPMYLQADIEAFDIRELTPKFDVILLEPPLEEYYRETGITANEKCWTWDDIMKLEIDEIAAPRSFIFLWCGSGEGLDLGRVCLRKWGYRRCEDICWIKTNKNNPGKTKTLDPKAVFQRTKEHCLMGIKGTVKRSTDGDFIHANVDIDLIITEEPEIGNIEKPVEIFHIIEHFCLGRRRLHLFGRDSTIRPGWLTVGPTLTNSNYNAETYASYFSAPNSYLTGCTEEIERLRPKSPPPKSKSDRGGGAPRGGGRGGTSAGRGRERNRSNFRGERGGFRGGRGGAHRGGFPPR

Row | Molecule | IC50 (METTL3/METTL14; Table 4) [µM] | IC50 (FLT3) [µM] | IC50 (PRMT5-MEP50; Table 4) [µM] | IC50 (FLT3-ITD) [µM] | IC50 (METTL3/METTL14; Table 3) [µM] | IC50 (PRMT5-MEP50; Table 3) [µM]
1 | Cn1ccc(-c2cn([C@@H]3O[C@H](C(=O)Nc4ccnc(NC5CCC5)c4)[C@@H](O)[C@H]3O)c3ncnc(N)c23)n1 [Compound I-167] | 0.1 to 1 | ≥ 1 | 0.1 to 1 | ≥ 1 | – | –
2 | Cn1ccc(-c2cn([C@@H]3O[C@H](C(=O)Nc4cc(NC5CCC5)ncn4)[C@@H](O)[C@H]3O)c3ncnc(N)c23)n1 [Compound I-164] | ≥ 1 | ≥ 1 | 0.1 to 1 | ≥ 1 | – | –
3 | Nc1ncnc2c1ccn2[C@@H]1O[C@H](C(=O)Nc2ccc3ccc(N4CCC4)nc3c2)[C@@H](O)[C@@H]1F [Compound I-34, (2S,3R,4S,5R)-5-{4-amino-7H-pyrrolo[2,3-d]pyrimidin-7-yl}-N-[2-(azetidin-1-yl)quinolin-7-yl]-4-fluoro-3-hydroxyoxolane-2-carboxamide] | 0.01 to 0.1 | ≥ 1 | ≥ 1 | ≥ 1 | – | –
4 | Cn1ccc(-c2cn([C@@H]3O[C@H](C(=O)Nc4ccccc4)[C@@H](O)[C@H]3O)c3ncnc(N)c23)n1 [Compound I-173] | 0.1 to 1 | ≥ 1 | – | ≥ 1 | – | –
5 | Cn1ccc(-c2cn([C@@H]3O[C@H](C(=O)NCCCN4CCCC4)[C@@H](O)[C@H]3O)c3ncnc(N)c23)n1 [Compound I-181] | ≥ 1 | ≥ 1 | 0.01 to 0.1 | ≥ 1 | – | –
6 | Cn1ccc(-c2cn([C@@H]3O[C@H](C(=O)NN4CCCCC4)[C@@H](O)[C@H]3O)c3ncnc(N)c23)n1 [Compound I-199] | ≥ 1 | ≥ 1 | 0.1 to 1 | ≥ 1 | – | –
7 | COCCNc1ccnc(NC(=O)[C@H]2O[C@@H](n3cc(-c4ccn(C)n4)c4c(N)ncnc43)[C@H](O)[C@@H]2O)c1 [Compound I-165] | 0.1 to 1 | ≥ 1 | 0.1 to 1 | ≥ 1 | – | –
8 | COCCN(C(=O)[C@H]1O[C@@H](n2ccc3c(N)ncnc32)[C@H](O)[C@@H]1O)c1ccc2ccc(N3CCC3)nc2c1 [Compound I-12] | – | – | – | – | ≥ 1 | ≥ 1
9 | COCCN(C(=O)[C@H]1O[C@@H](n2cc(-c3ccn(C)n3)c3c(N)ncnc32)[C@H](O)[C@@H]1O)c1ccc2ccc(N3CCC3)nc2c1 [Compound I-11] | – | – | – | – | 0.1 to 1 | 0.1 to 1
10 | CN1CCC(NC(=O)[C@H]2O[C@@H](n3ccc4c(N)ncnc43)[C@H](O)[C@@H]2O)CC1 [Compound I-27] | – | – | – | – | ≥ 1 | 0.1 to 1
11 | Cn1ccc(-c2cn([C@@H]3O[C@H](C(=O)N4CCc5[nH]cnc5C4)[C@@H](O)[C@H]3O)c3ncnc(N)c23)n1 [Compound I-217] | 0.1 to 1 | – | 0.01 to 0.1 | – | – | –
12 | CN1CCC(CNC(=O)[C@H]2O[C@@H](n3cc(-c4ccn(C)n4)c4c(N)ncnc43)[C@H](O)[C@@H]2O)CC1 [Compound I-24] | – | – | – | – | 0.1 to 1 | 0.01 to 0.1
13 | Cn1ccc(-c2cn([C@@H]3O[C@H](C(=O)NCC4CCOCC4)[C@@H](O)[C@H]3O)c3ncnc(N)c23)n1 [Compound I-21] | – | – | – | – | 0.1 to 1 | ≥ 1
14 | Cn1ccc(-c2cn([C@@H]3O[C@H](C(=O)NC4CCN(CC5CCC5)CC4)[C@@H](O)[C@H]3O)c3ncnc(N)c23)n1 [Compound I-223] | 0.01 to 0.1 | – | 0.01 to 0.1 | – | – | –
15 | CN1CCC(N(CCCC#N)C(=O)[C@H]2O[C@@H](n3cc(-c4ccn(C)n4)c4c(N)ncnc43)[C@H](O)[C@@H]2O)CC1 [Compound I-155] | 0.1 to 1 | – | 0.01 to 0.1 | – | – | –
16 | Cn1ccc(-c2cn([C@@H]3O[C@H](C(=O)N[C@H]4C[C@H](O)C4)[C@@H](O)[C@H]3O)c3ncnc(N)c23)n1 [Compound I-215] | ≥ 1 | – | ≥ 1 | – | – | –
17 | CN1CCC[C@H](NC(=O)[C@H]2O[C@@H](n3cc(-c4ccn(C)n4)c4c(N)ncnc43)[C@H](O)[C@@H]2O)C1 [Compound I-230] | ≥ 1 | – | 0.01 to 0.1 | – | – | –
18 | CC(=O)NCCCN(C(=O)[C@H]1O[C@@H](n2cc(-c3ccn(C)n3)c3c(N)ncnc32)[C@H](O)[C@@H]1O)C1CCN(C)CC1 [Compound I-235] | ≥ 1 | – | 0.1 to 1 | – | – | –
19 | CN1CC(NC(=O)[C@H]2O[C@@H](n3cc(-c4ccn(C)n4)c4c(N)ncnc43)[C@H](O)[C@@H]2O)C1 [Compound I-216] | 0.1 to 1 | – | 0.01 to 0.1 | – | – | –
20 | Cn1ccc(-c2cn([C@@H]3O[C@H](C(=O)NC4CCC4)[C@@H](O)[C@H]3O)c3ncnc(N)c23)n1 [Compound I-218] | 0.1 to 1 | – | ≥ 1 | – | – | –
21 | C[C@H]1C[C@@H](NC(=O)[C@H]2O[C@@H](n3cc(-c4ccn(C)n4)c4c(N)ncnc43)[C@H](O)[C@@H]2O)CCN1C [Compound I-232] | 0.1 to 1 | – | 0.1 to 1 | – | – | –
22 | (2S,3S,4R,5R)-5-[4-amino-5-(1-methyl-1H-pyrazol-3-yl)-7H-pyrrolo[2,3-d]pyrimidin-7-yl]-3,4-dihydroxy-N-{3-[(methylcarbamoyl)amino]propyl}-N-(1-methylpiperidin-4-yl)oxolane-2-carboxamide [Compound I-50] | ≥ 1 | – | 0.1 to 1 | – | – | –
